Measurements: paper PMC9775433 (Cancers, 2022)
Several values for one entry are separate records, joined by “and”; a condition that tells them apart may be missing. Equal values may be shown once. Read-outs that look alike come from different tables or passages of the source.

Columns and labels:
[1] = system: CD31; test: Immunohistochemistry of tumor biopsies, CD31 (microvessel density); assay type: in vivo, human; conditions: 10 paired tumor biopsies, day 17
Method: (§1) Immunohistochemistry: Immunohistochemical staining was performed on 3–5 μm thick sections of the (freeze) tumor biopsies for CD3, CD31 and Ki67 according to standard methods (see Supplementary Data S2). Morphological characteristics were assessed in hematoxylin-eosin (H&E)-stained tissue sections. Evaluation of staining was performed by four investigators using light microscopy of serial tissue sections. […] Semi-quantification of CD31 staining was scored manually by a pathologist. The number of cells positive for CD3, CD31 was expressed as an estimated proportion of the total number of cells. […]
(§2) Finally, staining was
(§3) visualized with 3,3-diamino-benzidine-tetra hydrochloride (DAB), 0.3 mg/ml in 1 ml PBS
(§4) with 0.3 % H2O2. All slides were counterstained with hematoxylin.

[2] = system: FGFR-1; design: method as in earlier work; conditions: cited from earlier work
[3] = system: Q6ZSR9; design: method as in earlier work; conditions: cited from earlier work
[4] = system: refractory solid tumors; design: method as in PMID 30586316; conditions: cited from earlier work
[5] = Food effect cohort; assay type: in vivo, human; conditions: 700 mg Q2W, fed versus fasted
[6] = Plasma pharmacokinetics of high-dose intermittent sunitinib (LC-MS-MS, NONMEM); assay type: in vivo, human; conditions: human, plasma, oral, Cmax plasma - Sunitinib concentration, individual patient
Method: Study pharmacokinetic assessment in plasma: Ethylenediaminetetraacetic acid (EDTA) blood was collected pretreatment and subsequently at multiple time points in all patients (0, 2, 4, 6, 8, 10, and 24 h post-dose on day 1 for both time schedules and thereafter at days 3, 8, 10, 15, 17, and 22 for the once weekly schedule and at days 3, 15, 17, and 29 for the once every 2 weeks schedule). All samples were centrifuged within 1 h after collection at 2000 g for 10 min (at 4 degrees Celsius (°C)), plasma was separated and stored at −80 °C until the day of analysis.
Since there is no evidence for the exact relationship between plasma and tumor concentrations, we chose to use the concentration–time data calculated by NONMEM for Cmax, the average concentration over time (Caverage) and the trough concentrations just before the next dose was administered (Ctrough) based on rich PK-data of each individual patient. […] Inter-occasion variability in bioavailability and absorption duration were allowed in the model. The control stream of the final model and the goodness-of-fit plots are supplied in the Supplementary Material (Supplementary Data S3). The developed model was used to derive the individual predictions for the Cmax, Caverage, and Ctrough. SUM concentrations were calculated.
(§5) Supplementary data S2 – Methods (Details)
(§6) samples; using a validated liquid chromatography–tandem mass spectrometry (LC-MS-MS).
(§7) The system consisted of an Acquity H‐Class UPLC system, coupled to a Xevo TQ‐S micro
(§8) tandem mass spectrometer. […]

[7] = Skin drug concentration in skin biopsy at day 17 (LC-MS-MS); assay type: in vivo, human; conditions: individual patient; for concentration at 17 day: human, skin, oral, Skin - Sunitinib concentration
Method: (§9) All tissue samples were immediately snap frozen (within 1 min) in liquid nitrogen and cryopreserved at −80 °C until the day of analysis.
(§10) Tissue biopsies were weighed accurately before analysis. Tissue homogenate was prepared by using a mechanical homogenizer. The tumor tissue was homogenized with the precellys lysing kit (bertin instruments®) in the Roche MagNA lyzer®. […] Tissue homogenate samples were directly analyzed.
as §5, §6, §7, §8

[8] = system: TEX264; design: method as in earlier work; conditions: cited from earlier work
[9] = system: LATS1; design: method as in earlier work; conditions: cited from earlier work
[10] = system: CSNK1D; design: method as in earlier work; conditions: cited from earlier work
[11] = mice; cited from earlier work
[12] = cited from earlier work
[13] = system: RASSF5; design: method as in earlier work; conditions: cited from earlier work
[14] = system: PHKG2; design: method as in earlier work; conditions: cited from earlier work
[15] = CAM-assay, cited from earlier work
[16] = system: RASSF3; design: method as in earlier work; conditions: cited from earlier work
[17] = system: CD3; test: Immunohistochemistry of tumor biopsies, CD3 (T-cell infiltration); assay type: in vivo, human; conditions: 10 paired tumor biopsies
Method: as §1, §2, §3, §4

[18] = system: AAK1; design: method as in earlier work; conditions: cited from earlier work
[19] = system: Ki67; test: Immunohistochemistry of tumor biopsies, Ki67 (tumor cell proliferation); assay type: in vivo, human; conditions: 10 paired tumor biopsies, day 17
Method: as §1, §2, §3, §4

[20] = system: TNIK; design: method as in earlier work; conditions: cited from earlier work
[21] = in vivo; cited from earlier work
[22] = Tumor drug concentration in tumor needle biopsy at day 17 (LC-MS-MS); assay type: in vivo, human; conditions: individual patient; for concentration at 17 day: human, tumor, oral, Tumor - Sunitinib concentration
Method: as §9, §10, §5, §6, §7, §8

[23] = standard daily schedule, three patients

- effect of food on oral uptake [5]: did not affect
- concentration at 17 day ([22]; 800 mg, 800 mg O2W): 228 ng/mL
Compound: CCN(CC)CCNC(=O)c1c(C)[nH]c(/C=C2\C(=O)Nc3ccc(F)cc32)c1C [sunitinib]
